The values below come from patent publication US11639355B2, “Substituted pyrrolo[3,4-d]imidazoles as MDM2-p53 inhibitors” (LUOXIN PHARMACEUTICAL (SHANGHAI) CO., LTD., priority 2018, dated 2023).

The bioavailability is dose-corrected exposure relative to a reference, in per cent. Broadly, the efflux ratio is the permeability from basolateral to apical divided by that in the opposite direction, in the common usage. As usually defined, the Papp A→B is how fast a substance crosses the layer from the apical side. Usually Papp B→A stands for how fast a substance crosses the layer from the basolateral side. For orientation: T/C means the ratio of treated to control. Usually TGI stands for how far tumour growth fell short of that in controls. A higher TGI goes with much slowing of growth.

Series [1] is described as follows: Pharmacokinetic study in mice, tail vein injection and oral cassette dosing. To be noted: mouse, plasma, female Balb/c mice. Format: in vivo. How it is done:
The purposes of the present disclosure are to study the pharmacokinetic behaviors of the compounds of the present disclosure in mice and to evaluate the pharmacokinetic characteristics thereof.
Healthy juvenile female Balb/c mice by weight of 20-30 g, 6 in total.
There were 6 female Balb/c mice, with after fasting overnight 3 mice administered a dose of 0.5 mg/kg via tail vein injection; the other 3 mice administered orally a dose of 2 mg/kg.
Blood was collected before administration and 0.08, 0.25, 0.5, 1, 2, 4, 8, and 24 hours after administration, placed in a heparinized anticoagulation tube, and centrifuged at 7000 rpm (5204 g) at 4° C., and the plasma was separated and stored at −80° C. 4 hours after administration, the mice were fed.
The LC/MS/MS method was used to determine the content of the compounds to be tested in mouse plasma after iv and oral administration. Plasma samples were analyzed after pretreatment of protein precipitation.

For series [2] the following is noted: reported data; cited from earlier work.
For series [3] the following is noted: reported data; cited from earlier work. The source holds these as a separate data set.
Another series relates to P-glycoprotein (MDR1). Briefly: Two-way permeability evaluation in MDR1-MDCK cells. The class given is in vitro ADME. To be noted: dog, MDCK-MDR1, pH 7.4, MDR1-MDCK. The text has this:
(§1) Experiment purpose: To determine the permeability of the test compounds in MDR1-MDCK cells
(§2) Experiment operation: MDR1-MDCK cells that permanently express human P-glycoprotein were inoculated on a 96-well Insert cell plate, and cultured for 4-7 days to form confluent monolayer cells. […] In addition, the cells were lysed with the cold acetonitrile solution containing the internal standard to measure the accumulation amount of intracellular compounds. The LC/MS/MS method was used to analyze the concentrations of the compounds to be tested in all samples (including an initial dosing solution, supernatant of the donor wells, receiver solution, and cell lysate). The concentrations of the test compounds were expressed by the ratio of the peak area thereof to the peak area of the internal standard to detect the permeability of the compounds from directions of A→B and B→A.

Series [4] relates to P-glycoprotein (MDR1), human. Nature of the series: Two-way permeability evaluation in MDR1-MDCK cells. Format: in vitro ADME. The conditions noted are these: dog, MDR1-MDCK.
Excerpt: as §1, §2

The next series concerns MV4-11 tumor cells. Nature of the series: Efficacy in mice with subcutaneously transplanted MV4-11 acute myeloid leukemia tumor. Format: in vivo. The conditions noted are these: 6 mg/kg oral once a day. As to the method: 0.2 mL (10×10^6 cells, containing 50% Matrigel) of MV4-11 tumor cells were inoculated subcutaneously on the right back of each mouse to form a transplanted tumor; when the volume reached 100-200 mm^3, the animals were randomly grouped according to the tumor volume, with 8 in the negative control group, 8 in the positive control group, and 8 in the experimental group. […] The length (A) and width (B) of the tumor were measured with a vernier caliper twice a week, thereby calculating the tumor volume V=A×B^2/2. The calculation of relative tumor volume (RTV) follows: RTV=Vt/V0, where Vt is the tumor volume at the end of the administration, and V0 is the tumor volume measured before division into different cages for administration. The pharmacodynamic evaluation index of the anti-tumor activity is the relative tumor proliferation ratio T/C (%), and the calculation formula is: T/C (%)=TRTV/CRTV×100%. Where TRTV is the RTV of the treatment group; CRTV is the RTV of the negative control group. Efficacy evaluation criteria: T/C %>60% is invalid; T/C %≤60% and P<0.05 upon statistical treatment is valid.
CVt is the tumor volume of the control group at the end of the administration; CV0 is the tumor volume of the control group before division into different cages for administration; TVt is the tumor volume of the dosing group at the end of the administration; TV0 is the tumor volume of the dosing group before division into different cages for administration. The difference in tumor volumes between the dosing group and the control group was subjected to t-test. At the same time, the nude mice of each group were weighed twice a week to preliminarily evaluate the side effects of the drugs.

A short description of series [5]: Two-way permeability evaluation in Caco-2 cells. The class given is in vitro ADME. The conditions noted are these: human; for recovery at 2.5 h, 2 μM: Caco-2, pH 7.4, Caco-2. How it is done: Experiment purpose: To determine the permeability of the test compounds in Caco-2 cells
Experiment operation: Human colon cancer Caco-2 cells were inoculated on a 96-well Insert cell plate at a density of 1×10^5 cells/cm^2, and cultured for 4-5 days to form confluent monolayer cells. The test compounds was diluted with an HBSS buffer (pH 7.4) to a concentration of 2 μM, added to the top or basolateral side of the cells, and incubated at 37° C., 5% CO2 and saturated humidity for 2.5 hours, and then the sample solutions in the donor wells and receiver wells were taken and immediately mixed with a cold acetonitrile solution containing an internal standard. In addition, the cells were lysed with the cold acetonitrile solution containing the internal standard to measure the accumulation amount of intracellular compounds. The LC/MS/MS method was used to analyze the concentrations of the compounds to be tested in all samples (including an initial dosing solution, supernatant of the donor wells, receiver solution, and cell lysate). The concentrations of the test compounds were expressed by the ratio of the peak area thereof to the peak area of the internal standard to detect the permeability of the compounds from directions of A→B and B→A.

Where [6] appears, read: read-out: Average recovery rate A→B.
The mark [7] stands for this setting: read-out: Average recovery rate B→A.
Where [8] appears, read: Caco-2, 2 μM, pH 7.4, 2.5 hours.

Each structure is given as a SMILES string. Read-outs that look alike come from different tables or passages of the source.

`COc1ncc(-c2nc3c(n2C(C)C)[C@H](c2ccc(Cl)cc2)N(c2cc(Cl)cn(C)c2=O)C3=O)c(OC)n1` [NVP-HDM201]: in series [1] (0.5 mg/kg, intravenous injection 0.5 mpk, read-out: Half-life T1/2 (converted)), the half-life is 42.6 min. For the same compound, the bioavailability in series [1] (2 mg/kg, iv 0.5 mpk, oral 2 mpk, read-out: Oral bioavailability F) came out at 39.6%. Further, the AUC(0-t) in series [1] (2 mg/kg, oral administration 2 mpk, read-out: Oral exposure AUC0-t) was found to be 1.32 µM·h. In series [2], the “stability in mouse liver microsomes” value is recorded as “poor”. The drug plasma exposure entry in series [3] is “low”. Besides, the half-life in mice entry in series [3] was “short”. Besides, the recovery at 2.5 h, 2 μM in the series with P-glycoprotein (MDR1) (setting [6]) was found to be 38%; in the series with P-glycoprotein (MDR1) (setting [7]), 50%; in series [5] (setting [6]), 94.3%; in series [5] (setting [7]), 88.3%. Further, the efflux ratio at 2.5 h, 2 μM was found to be 20.3 in series [4] (pH 7.4) and 198 in series [5] (Caco-2, pH 7.4). For the same compound, the Papp A→B at 2.5 h, 2 μM in series [4] (2 μM, pH 7.4, 2.5 hours) worked out at 0.91 ×10⁻⁶ cm/s; in series [5] (setting [8]), 0.17 ×10⁻⁶ cm/s. The Papp B→A at 2.5 h, 2 μM in series [4] (2 μM, pH 7.4, 2.5 hours) amounted to 18.4 ×10⁻⁶ cm/s; in series [5] (setting [8]) it was 34.3 ×10⁻⁶ cm/s. Besides, in the series on MV4-11 tumor cells, the “RTV (21 days)” value was found to be 4.68 ± 0.69. In the series on MV4-11 tumor cells (21 days), the T/C is reported as 73.58%. This compound showed a TGI with MV4-11 tumor cells (21 days) of 36.91%. Further, the “Tumor volume (Day 0)” value in the series on MV4-11 tumor cells (Day 0, before administration) is recorded as 153 ± 20 mm^3. Moreover, the “Tumor volume (Day 21)” value with MV4-11 tumor cells (Day 21) worked out at 695 ± 115 mm^3.
